# From patent US9796719B2, “Compounds and pharmaceutical compositions thereof for the treatment of inflammatory disorders” (GALAPAGOS NV, priority 2013, dated 2017)
# Tests used:
# hENPP2 [1] = target: T1, hENPP2 (UniProtKB/SwissProt Sequence ref Q13822) (Homo sapiens (Human), UniProt Q13822); assay: LPC hENPP2 assay (choline release, LPC as substrate); type: biochemical
# Method in brief: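 Detection is coupled: choline oxidase produces peroxide, which HRP uses to form quinoneimine dye from TOOS and 4-aminoantipyrine, read at 555 nm. The reaction is stopped with 20 mM EGTA in the developer mix, then incubated 30 min at room temperature; inhibition lowers signal.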
# hENPP2 [2] = target: T1, hENPP2; assay: FS3 hENPP2 assay (fluorogenic substrate FS-3); type: biochemical; details: hENPP2, FS-3 as substrate
# Description: Compound IC50 values are determined in a fluorescent hENPP2 (UniProtKB/SwissProt Sequence ref Q13822) biochemical assay using the fluorogenic autotaxin substrate FS-3 as substrate. FS-3 is a doubly labeled analog of LPC wherein the fluorophore is quenched through intramolecular energy transfer. Without hENPP2, the emission of the probe is quenched. If the substrate is hydrolyzed by hENPP2, the emission of the probe is not quenched anymore resulting in a fluorescence increase. Inhibition of hENPP2 by compounds will result in a decrease of the signal.
# 10 μL of a dilution series of compound, starting from 20 μM highest concentration, ⅕ dilution, is added to the wells. hENPP2 is used at a final concentration of 0.4 μg/mL or 0.64 μg/mL (it will be appreciated by the skilled person that the potency read out is independent of the enzyme concentration). The enzyme is diluted in 50 mM Tris-HCl pH 8.0, 250 mM NaCl, 5 mM KCl, 1 mM MgCl2, 1 mM CaCl2, 0.1% fatty acid free BSA in a total volume of 20 μL. Enzyme mixture is added to compounds and the resulting mixture is incubated for 30 min at room temperature under shaking. The reaction is started by the addition of 20 μL of 0.75 μM FS-3 diluted in the same buffer as described above and the mixture is incubated at 30° C. for 30 min. Fluorescence is read on the Envision (Excitation 485 nm, emission 520 nm).
IC50 (hENPP2 [1]),IC50 (hENPP2 [2]),Compound
> 1000 nM,25 to 50 nM,"CCc1nc2ccc(N3CCCC(CN)C3)nn2c1N(C)c1nc(-c2ccc(F)cc2)cs1 (stereo not drawn) [Cpd 101, N-(6-(3-(aminomethyl)piperidin-1-yl)-2-ethylimidazo[1,2-b]pyridazin-3-yl)-4-(4-fluorophenyl)-N-methylthiazol-2-amine]"
> 1000 nM,0.01 to 25 nM,"CCc1nc2ccc(N3CCCC(CNS(C)(=O)=O)C3)nn2c1N(C)c1nc(-c2ccc(F)cc2)cs1 (stereo not drawn) [Cpd 102, N-((1-(2-ethyl-3-((4-(4-fluorophenyl)thiazol-2-yl)(methyl)amino)imidazo[1,2-b]pyridazin-6-yl)piperidin-3-yl)methyl) methanesulfonamide]"
> 1000 nM,0.01 to 25 nM,"CCc1nc2ccc(N3CCCC(C(N)=O)C3)nn2c1N(C)c1nc(-c2ccc(F)cc2)cs1 (stereo not drawn) [Cpd 99, 1-(2-ethyl-3-((4-(4-fluorophenyl)thiazol-2-yl)(methyl)amino)imidazo[1,2-b]pyridazin-6-yl)piperidine-3-carboxamide]"
500 to 1000 nM,0.01 to 25 nM,"CCc1nc2ccc(N3CCN(CCCO)CC3)nn2c1N(C)c1nc(-c2ccc(F)cc2)cs1 [Cpd 49, 3-(4-(2-ethyl-3-((4-(4-fluorophenyl)thiazol-2-yl)(methyl)amino)imidazo[1,2-b]pyridazin-6-yl)piperazin-1-yl)propan-1-ol]"
> 1000 nM,0.01 to 25 nM,"CCc1nc2ccc(N3CCOCC3)nn2c1N(C)c1nc(-c2ccc(F)cc2)cs1 [Cpd 78, N-(2-ethyl-6-morpholinoimidazo [1,2-b]pyridazin-3-yl)-4-(4-fluorophenyl)-N-methylthiazol-2-amine]"
> 1000 nM,25 to 50 nM,"CCc1nc2cnc(C3CCNCC3)cn2c1N(C)c1nc(-c2ccc(F)cc2)c(C#N)s1 [Cpd 22, 2-((2-ethyl-6-(piperidin-4-yl)imidazo[1,2-a]pyrazin-3-yl)(methyl)amino)-4-(4-fluorophenyl) thiazole-5-carbonitrile]"
500 to 1000 nM,0.01 to 25 nM,"CCc1nc2ccc(N3CC4CN(S(=O)(=O)CCCN(C)C)CC4C3)nn2c1N(C)c1nc(-c2ccc(F)cc2)cs1 (stereo not drawn) [Cpd 126, N-(6-(5-(3-(dimethylamino)propylsulfonyl)hexahydropyrrolo [3,4-c]pyrrol-2(1H)-yl)-2-ethylimidazo[1,2-b]pyridazin-3-yl)-4-(4-fluorophenyl)-N-methylthiazol-2-amine]"
> 1000 nM,0.01 to 25 nM,"CCc1nc2ccc(N3CCC(N)C3)nn2c1N(C)c1nc(-c2ccc(F)cc2)cs1 (stereo not drawn) [Cpd 134, N-(6-(3-aminopyrrolidin-1-yl)-2-ethylimidazo[1,2-b]pyridazin-3-yl)-4-(4-fluorophenyl)-N-methylthiazol-2-amine]"
> 1000 nM,0.01 to 25 nM,"CN(c1nc(-c2ccc(F)cc2)cs1)c1c(CCCO)nc2ccc(C3CCN(S(C)(=O)=O)CC3)nn12 [Compound 200, 3-(3-((4-(4-fluorophenyl)thiazol-2-yl)(methyl)amino)-6-(1-(methylsulfonyl)piperidin-4-yl)imidazo[1,2-b]pyridazin-2-yl)propan-1-ol]"
100 to 500 nM,0.01 to 25 nM,"CCc1nc2ccc(N3CCN(S(C)(=O)=O)[C@H](CO)C3)nn2c1N(C)c1nc(-c2ccc(F)cc2)cs1 [Cpd 67, (S)-(4-(2-ethyl-3-((4-(4-fluorophenyl)thiazol-2-yl)(methyl)amino)imidazo[1,2-b]pyridazin-6-yl)-1-(methylsulfonyl)piperazin-2-yl)methanol]"
> 1000 nM,50 to 100 nM,"CCc1nc2ccc(C3CCN(CC(=O)N4CC(O)C4)CC3)nn2c1N(C)c1nc(-c2ccc(F)cc2)ccc1C#N [Cpd 217, 2-((2-ethyl-6-(1-(2-(3-hydroxyazetidin-1-yl)-2-oxoethyl)piperidin-4-yl)imidazo[1,2-b]pyridazin-3-yl)(methyl)amino)-6-(4-fluorophenyl) nicotinonitrile]"
0.01 to 100 nM,0.01 to 25 nM,"CCc1nc2ccc(N3CCN(CC(=O)N(C)C)CC3)nn2c1N(C)c1nc(-c2ccc(F)cc2)c(C(=O)C(F)(F)F)s1 [Cpd 45, 2-(4-(2-ethyl-3-((4-(4-fluorophenyl)-5-(2,2,2-trifluoroacetoyl)thiazol-2-yl)(methyl)amino)imidazo[1,2-b]pyridazin-6-yl)piperazin-1-yl)-N,N-dimethylacetamide]"
> 1000 nM,0.01 to 25 nM,"CCc1nc2ccc(N3CCN(CCOC)CC3)nn2c1N(C)c1nc(-c2ccc(F)cc2)cs1 [Cpd 53, N-(2-ethyl-6-(4-(2-methoxyethyl)piperazin-1-yl)imidazo[1,2-b]pyridazin-3-yl)-4-(4-fluorophenyl)-N-methylthiazol-2-amine]"
> 1000 nM,0.01 to 25 nM,"CCc1nc2ccc(N3CC4CN(C(C)=O)CC4C3)nn2c1N(C)c1nc(-c2ccc(F)cc2)cs1 (stereo not drawn) [Compound 124, 1-(5-(2-ethyl-3-((4-(4-fluorophenyl)thiazol-2-yl)(methyl)amino)imidazo[1,2-b]pyridazin-6-yl)hexahydropyrrolo[3,4-c]pyrrol-2(1H)-yl)ethanone]"
100 to 500 nM,0.01 to 25 nM,"CCc1nc2ccc(N3CCN(CC(=O)N(C)C)CC3)nn2c1N(C)c1nc(-c2ccc(F)cc2)c(CO)s1 [Cpd 43, 2-(4-(2-ethyl-3-((4-(4-fluorophenyl)-5-(hydroxymethyl)thiazol-2-yl)(methyl)amino)imidazo[1,2-b]pyridazin-6-yl)piperazin-1-yl)-N,N-dimethylacetamide]"
> 1000 nM,0.01 to 25 nM,"CCc1nc2ccc(N3CCCC(CO)C3)nn2c1N(C)c1nc(-c2ccc(F)cc2)cs1 (stereo not drawn) [Cpd 94, (1-(2-ethyl-3-((4-(4-fluorophenyl)thiazol-2-yl)(methyl)amino)imidazo[1,2-b]pyridazin-6-yl)piperidin-3-yl)methanol]"
> 1000 nM,0.01 to 25 nM,"CCc1nc2ccc(N3CC4CN(S(=O)(=O)CCCCl)CC4C3)nn2c1N(C)c1nc(-c2ccc(F)cc2)cs1 (stereo not drawn) [Cpd 125, N-(6-(5-(3-chloropropyl-sulfonyl)-hexahydropyrrolo [3,4-c]pyrrol-2(1H)-yl)-2-ethylimidazo[1,2-b]pyridazin-3-yl)-4-(4-fluorophenyl)-N-methylthiazol-2-amine]"
> 1000 nM,0.01 to 25 nM,"CCc1nc2ccc(N3CCC(N4CCSCC4)C3)nn2c1N(C)c1nc(-c2ccc(F)cc2)cs1 (stereo not drawn) [Cpd 131, N-(2-ethyl-6-(3-thiomorpholino-pyrrolidin-1-yl)imidazo[1,2-b]pyridazin-3-yl)-4-(4-fluorophenyl)-N-methylthiazol-2-amine]"
> 1000 nM,0.01 to 25 nM,"CCc1nc2ccc(N3CCC(O)C3)nn2c1N(C)c1nc(-c2ccc(F)cc2)cs1 (stereo not drawn) [Cpd 129, 1-(2-ethyl-3-((4-(4-fluorophenyl)thiazol-2-yl)(methyl)amino)imidazo[1,2-b]pyridazin-6-yl)pyrrolidin-3-ol]"
500 to 1000 nM,0.01 to 25 nM,"CCc1nc2ccc(N3CCC(N4CCC(O)CC4)C3)nn2c1N(C)c1nc(-c2ccc(F)cc2)cs1 (stereo not drawn) [Cpd 152, 1-(1-(2-ethyl-3-((4-(4-fluorophenyl)thiazol-2-yl)(methyl)amino)imidazo[1,2-b]pyridazin-6-yl)pyrrolidin-3-yl)piperidin-4-ol]"
> 1000 nM,0.01 to 25 nM,"CCc1nc2ccc(N3CCC(N4CCS(=O)(=O)CC4)C3)nn2c1N(C)c1nc(-c2ccc(F)cc2)cs1 (stereo not drawn) [Cpd 150, {6-[3-(1,1-Dioxo-thiomorpholin-4-yl)-pyrrolidin-1-yl]-2-ethyl-imidazo[1,2-b]pyridazin-3-yl}-[4-(4-fluoro-phenyl)-thiazol-2-yl]-methyl-amine]"
